TGI data for 13 compounds are collected here from PubChem BioAssay (NCI).

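96-well plates; 48 h exposure; 5 concentrations. Endpoints by linear interpolation between flanking doses. Not reached: highest tested concentration assigned. At the TGI there is no net growth.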

Among the test systems are ACHN renal; HS 578T breast; HT29 colon; MDA-N; OVCAR-4 ovarian; NCI-H460 lung; SW-620 colon; K-562 leukemia; MCF7 breast; SK-OV-3 ovarian; NCI-H522 lung.
Holding throughout (assay): NCI tumour cell line growth inhibition, 48 h

Turning to `COC1=C[C@]2(CCC(=O)O2)[C@@H]2Cc3ccccc3[C@H](O)[C@@H]2C1=O`, the TGI is over 100 µM with ACHN renal; over 100 µM in the assay with HS 578T breast; over 100 µM in the assay on HT29 colon; 30.1 µM in the assay with MDA-N; over 100 µM with OVCAR-4 ovarian; over 100 µM with NCI-H460 lung. Also, the TGI is 88.8 µM with SW-620 colon; over 100 µM in the assay on K-562 leukemia; over 100 µM in the assay on MCF7 breast; over 100 µM in the assay with SK-OV-3 ovarian; 44.4 µM in the assay on NCI-H522 lung.
Take `C=C(C)[C@@H](O)[C@H](O)C[C@H](C)C1CC[C@]2(C)C1=CC[C@@H]1[C@@]3(C)CC[C@@H](OC(C)=O)C(C)(C)[C@@H]3C[C@@H](OC3OC(COC(C)=O)C(O)C(O)C3O)[C@]12C` (stereo partly specified): the TGI is 6.36 µM in the assay on ACHN renal; 10 µM in the assay on HS 578T breast; 4.04 µM in the assay with HT29 colon; 8.55 µM in the assay with MDA-N; 9.17 µM in the assay on OVCAR-4 ovarian; 6.51 µM in the assay on NCI-H460 lung. Besides, the TGI is 12.3 µM with SW-620 colon; 5.21 µM with K-562 leukemia; 8.82 µM in the assay on MCF7 breast; 10.4 µM with SK-OV-3 ovarian; 3.55 µM in the assay on NCI-H522 lung.
As to `Oc1c(CN2CCCC2)ccc2cccnc12`, the TGI in the assay with ACHN renal is 59.5 µM; in the assay on HS 578T breast it was over 100 µM; in the assay with HT29 colon, over 69 µM; with MDA-N, over 100 µM; in the assay on OVCAR-4 ovarian it was over 100 µM; in the assay on NCI-H460 lung, over 84.6 µM. In addition, the TGI with SW-620 colon is over 100 µM; in the assay with K-562 leukemia, over 100 µM; in the assay with MCF7 breast, over 100 µM; in the assay on SK-OV-3 ovarian, over 96.2 µM; with NCI-H522 lung, over 100 µM.
Turning to `Cc1ccc(S(=O)(=O)N2CCC[C@@H]2C(=O)O[C@@H]2CCC3CC=CC32)cc1` (stereo partly specified), the TGI with ACHN renal was over 100 µM; with HS 578T breast, 87.5 µM; in the assay on HT29 colon, over 100 µM; in the assay with MDA-N, 78.6 µM; with OVCAR-4 ovarian, over 100 µM; with NCI-H460 lung, over 100 µM. Also, the TGI is over 100 µM in the assay on SW-620 colon; over 100 µM with K-562 leukemia; over 100 µM in the assay on MCF7 breast; 48.3 µM in the assay with SK-OV-3 ovarian; 50.8 µM in the assay with NCI-H522 lung.
As to `CSc1ncc2c(n1)-c1ccccc1OC2N1CCOCC1` (stereo unspecified), the TGI with ACHN renal, in the assay on HS 578T breast, in the assay on HT29 colon, in the assay on MDA-N, in the assay with OVCAR-4 ovarian and with NCI-H460 lung was over 100 µM in each case. The TGI in the assay on SW-620 colon, in the assay on K-562 leukemia, in the assay with MCF7 breast, with SK-OV-3 ovarian and with NCI-H522 lung was over 100 µM in each case.
For `CC(C)C(Nc1ncnc2nc[nH]c12)C(=O)O` (stereo unspecified), the TGI in the assay with ACHN renal, in the assay with HS 578T breast, in the assay on HT29 colon, in the assay with MDA-N, in the assay with OVCAR-4 ovarian and in the assay with NCI-H460 lung was over 100 µM throughout. Besides, the TGI in the assay on SW-620 colon, with K-562 leukemia, with MCF7 breast, with SK-OV-3 ovarian and in the assay with NCI-H522 lung was over 100 µM throughout.
For the compound `COc1ccc(-n2c(SC(CN3CCOCC3)CN3CCCC3=O)nc3ccccc3c2=O)cc1` (stereo unspecified), the TGI in the assay with ACHN renal, with HS 578T breast, in the assay with HT29 colon, in the assay with MDA-N, in the assay on OVCAR-4 ovarian and with NCI-H460 lung was over 100 µM throughout. For the same compound, the TGI in the assay on SW-620 colon, with K-562 leukemia, in the assay with MCF7 breast, in the assay on SK-OV-3 ovarian and with NCI-H522 lung was over 100 µM in each case.
Consider `Nn1c(Nc2ccc(S(N)(=O)=O)cc2)nnc(/C=C/c2c(O)ccc3ccccc23)c1=O`, for which the TGI in the assay with ACHN renal was over 100 µM; with HS 578T breast, over 100 µM; in the assay with HT29 colon it was 42.6 µM; in the assay with MDA-N, 42 µM; in the assay with OVCAR-4 ovarian, 47.5 µM; in the assay with NCI-H460 lung, 96.2 µM. Further, the TGI in the assay with SW-620 colon came to 45.3 µM; in the assay with K-562 leukemia, 34.5 µM; in the assay with MCF7 breast, 43 µM; with SK-OV-3 ovarian, 88.5 µM; in the assay on NCI-H522 lung it was 33 µM.
Take `O=C1/C(=C/c2ccc(O)cc2)CCCC1CN1CCCCC1` (stereo unspecified): the TGI with ACHN renal is 3.11 µM; with HS 578T breast, 11.5 µM; in the assay on HT29 colon, 6.91 µM; with MDA-N, 10.8 µM; with OVCAR-4 ovarian it was 25.8 µM; with NCI-H460 lung, 30.7 µM. In addition, the TGI was 3.8 µM with SW-620 colon; over 24.4 µM in the assay with K-562 leukemia; 6.49 µM in the assay on MCF7 breast; 30.4 µM with SK-OV-3 ovarian; 2.79 µM with NCI-H522 lung.
Consider `Cc1nnc(N)nc1/C=C\c1ccc(Cl)cc1Cl`, for which the TGI with ACHN renal was over 100 µM; with HS 578T breast, 99.2 µM; in the assay on HT29 colon it was 41.7 µM; in the assay with MDA-N it was over 100 µM; in the assay on OVCAR-4 ovarian it was over 100 µM; in the assay on NCI-H460 lung it was 42.8 µM. For the same compound, the TGI in the assay with SW-620 colon is 51.3 µM; in the assay with K-562 leukemia, over 100 µM; in the assay with MCF7 breast, over 100 µM; in the assay with SK-OV-3 ovarian it was over 100 µM; in the assay with NCI-H522 lung, 57.5 µM.
As to `O=c1c2c3c(sc2nc2n1N=CN(c1ccccc1)C2)CCCC3`, the TGI in the assay on ACHN renal, in the assay with HS 578T breast, in the assay with HT29 colon, in the assay on MDA-N, in the assay with OVCAR-4 ovarian and in the assay with NCI-H460 lung was over 100 µM in each case. Besides, the TGI in the assay with SW-620 colon, in the assay with K-562 leukemia, in the assay with MCF7 breast, in the assay with SK-OV-3 ovarian and in the assay with NCI-H522 lung was over 100 µM each time.
For the compound `Cn1c(-c2ccc(-c3cc(-c4cccs4)c(-c4cccs4)n3C)cc2)cc(-c2cccs2)c1-c1cccs1`, the TGI in the assay on ACHN renal, with HS 578T breast, with HT29 colon, with MDA-N, with OVCAR-4 ovarian and with NCI-H460 lung was over 100 µM throughout. The TGI in the assay on SW-620 colon, with K-562 leukemia, in the assay on MCF7 breast and with SK-OV-3 ovarian was over 100 µM in each case.
In the case of `Cc1ccc(Cc2cc(N3CCN(c4cccc(Cl)c4)CC3)nnc2C)cc1`, the TGI with ACHN renal is over 100 µM; with HS 578T breast it was over 100 µM; in the assay with HT29 colon, 81.2 µM; with MDA-N, over 100 µM; in the assay with OVCAR-4 ovarian, over 100 µM; in the assay on NCI-H460 lung, over 100 µM. Also, the TGI with SW-620 colon is over 100 µM; in the assay on MCF7 breast, over 100 µM; in the assay on SK-OV-3 ovarian, over 100 µM; in the assay with NCI-H522 lung it was 81.5 µM.
